Test results as given in patent publication US20230049952A1, “METHODS AND COMPOUNDS FOR RESTORING MUTANT P53 FUNCTION” (PMV Pharmaceuticals, Inc., priority 2020, published 2023).
Read-outs that look alike come from different tables or passages of the source.

Legend:
MATE1 [1] = target: T1, MATE1 (Homo sapiens, UniProt Q96FL8); experiment: in vitro; settings: HEK293 cells transfected with MATE1, probe metformin (50 µM)
MATE1 [2] = target: T1, MATE1; experiment: uptake transporter inhibition assessment, transfected HEK293; settings: inhibitor 100 μM
in vitro [3] = settings: for Analyte Peak/IS Peak Ares (Mean), T60-blood / Analyte Peak/IS Peak Ares (Mean), T60-plasma: 60 min; for Analyte Peak/IS Peak Ares (Mean), T60-blood / Analyte Peak/IS Peak Ares (Mean), T60-plasma / Analyte Peak/IS Peak Ares (Mean), T0: 2 μM; for Analyte Peak/IS Peak Ares (Mean), T0: 0 min
Method: All working solutions were freshly prepared similarly as described for the test article working solution.
Assay for determining Blood to plasma ratio: Pooled male CD-1 mouse, Sprague-Dawley rat, beagle dog and cynomolgus monkey plasma, and mixed gender human blood with EDTAK2 as anticoagulant were stored on wet ice and used the same day. […] After mixing thoroughly, 0.6 mL of spiked blood was transferred to a 96-well plate in triplicate. Concurrently, control compounds were spiked into each species blood in the same fashion to generate the final concentration of 2.0 μM.
The rest of the spiked blood samples were immediately placed into a humidified incubator with 5% CO2 at 37° C., with constant swiveling at 500 rpm for 60 min on a platform shaker. […] The T60-plasma samples for analysis were obtained by taking 50 μL of plasma from each well, mixed with 50 μL of blank blood and 100 μL of water, followed by addition of 600 μL stop solution. […] All the T0, T60-blood and T60-plasma samples were shaken vigorously at 800 rpm for 30 min followed by the centrifugation at 3220×g at 20° C. for 20 min. 100 μL aliquot of supernatant was diluted with 100 μL of water and mixed well for LC-MS/MS analysis.
Measurement of Hematocrit: The hematocrit (the volume percentage of erythrocytes in blood) was determined in triplicate for each species by centrifuging the blood samples with a HAEMATOKRIT 200 at 9440×g for 5 min.
Data analysis: The ratio of compound concentrations in whole blood over plasma (KB/P) and % Recovery in blood were calculated by the following equations: KB/P=[…]([T60-blood]/[T60-plasma]), where [T60-blood] is the peak area ratios of analyte/internal standard in whole blood sample at 60 min; [T60-plasma] is the peak area ratios of analyte/internal standard in plasma sample at 60 min; [T0-blood] is the peak area ratios of analyte/internal standard in whole blood sample at time zero.

CYP2C9 = CYP2C9 (Homo sapiens, UniProt P11712); settings: 20 min, 6 μM, pH 7.4
P-GP [4] = target: T2, P-GP (Homo sapiens, UniProt P08183); settings: Caco-2, 120 min, 10 µM, pH 7.4
P-GP [5] = target: T2, P-GP; experiment: in vitro; settings: Caco-2, pH 7.4
P-GP [6] = target: T2, P-GP; experiment: in vitro; settings: dog, MDCK-MDR1, pH 7.4
P-GP [7] = target: T2, P-GP; experiment: in vitro
in vitro [8] = settings: human, Caco-2
P-gp [9] = experiment: in vitro; settings: human, Caco-2, pH 7.4
P-gp (MDR1) = experiment: in vitro; settings: dog, MDCK-MDR1
P-gp [10] = experiment: in vitro; settings: dog, MDCK-MDR1, pH 7.4
P-GP [11] = target: T2, P-GP; experiment: P-GP substrate assessment, Caco-2 monolayers
P-GP [12] = target: T2, P-GP; experiment: P-GP substrate assessment, MDR1-MDCK monolayers; settings: for Recovery (%): B-to-A
CYP2D6 [13] = target: T3, CYP2D6 (Homo sapiens, UniProt P10635); settings: both, microsomes, 30 min, 0.123 µM, pH 7.4
CYP2D6 [14] = target: T3, CYP2D6; experiment: in vitro; settings: both, microsomes, pH 7.4, % of Control Enzyme Activity
CYP1A2 = CYP1A2 (Homo sapiens, UniProt P05177); settings: 20 min, 50 μM, pH 7.4
OAT3 [15] = target: T4, OAT3 (Homo sapiens, UniProt Q8TCC7); experiment: in vitro; settings: HEK293 cells transfected with OAT3, probe furosemide (5 µM)
OAT3 [16] = target: T4, OAT3; experiment: uptake transporter inhibition assessment, transfected HEK293; settings: inhibitor 100 μM
[17] = cell batch quality control, BCRP-MDCK monolayers; type: in vitro ADME; settings: dog; BCRP-MDCK cell batch QC; passage 23
Method: BCRP-MDCK cell monolayers were prepared at Absorption Systems. […] Each determination was performed in duplicate.

in vitro [18] = settings: dog, MDCK-MDR1, pH 7.4
MATE2K [19] = target: T5, MATE2K (Homo sapiens, UniProt Q86VL8); experiment: in vitro; settings: HEK293 cells transfected with MATE2K, probe metformin (50 µM)
MATE2K [20] = target: T5, MATE2K; experiment: uptake transporter inhibition assessment, transfected HEK293; settings: inhibitor 1 μM
[21] = CYP Control (negative control without CYP enzymes) in hrCYP reaction phenotyping; settings: S-mephenytoin 20 μM, metabolite 4′ - OH Mephenytoin

T2 sequence (P08183 whole entry): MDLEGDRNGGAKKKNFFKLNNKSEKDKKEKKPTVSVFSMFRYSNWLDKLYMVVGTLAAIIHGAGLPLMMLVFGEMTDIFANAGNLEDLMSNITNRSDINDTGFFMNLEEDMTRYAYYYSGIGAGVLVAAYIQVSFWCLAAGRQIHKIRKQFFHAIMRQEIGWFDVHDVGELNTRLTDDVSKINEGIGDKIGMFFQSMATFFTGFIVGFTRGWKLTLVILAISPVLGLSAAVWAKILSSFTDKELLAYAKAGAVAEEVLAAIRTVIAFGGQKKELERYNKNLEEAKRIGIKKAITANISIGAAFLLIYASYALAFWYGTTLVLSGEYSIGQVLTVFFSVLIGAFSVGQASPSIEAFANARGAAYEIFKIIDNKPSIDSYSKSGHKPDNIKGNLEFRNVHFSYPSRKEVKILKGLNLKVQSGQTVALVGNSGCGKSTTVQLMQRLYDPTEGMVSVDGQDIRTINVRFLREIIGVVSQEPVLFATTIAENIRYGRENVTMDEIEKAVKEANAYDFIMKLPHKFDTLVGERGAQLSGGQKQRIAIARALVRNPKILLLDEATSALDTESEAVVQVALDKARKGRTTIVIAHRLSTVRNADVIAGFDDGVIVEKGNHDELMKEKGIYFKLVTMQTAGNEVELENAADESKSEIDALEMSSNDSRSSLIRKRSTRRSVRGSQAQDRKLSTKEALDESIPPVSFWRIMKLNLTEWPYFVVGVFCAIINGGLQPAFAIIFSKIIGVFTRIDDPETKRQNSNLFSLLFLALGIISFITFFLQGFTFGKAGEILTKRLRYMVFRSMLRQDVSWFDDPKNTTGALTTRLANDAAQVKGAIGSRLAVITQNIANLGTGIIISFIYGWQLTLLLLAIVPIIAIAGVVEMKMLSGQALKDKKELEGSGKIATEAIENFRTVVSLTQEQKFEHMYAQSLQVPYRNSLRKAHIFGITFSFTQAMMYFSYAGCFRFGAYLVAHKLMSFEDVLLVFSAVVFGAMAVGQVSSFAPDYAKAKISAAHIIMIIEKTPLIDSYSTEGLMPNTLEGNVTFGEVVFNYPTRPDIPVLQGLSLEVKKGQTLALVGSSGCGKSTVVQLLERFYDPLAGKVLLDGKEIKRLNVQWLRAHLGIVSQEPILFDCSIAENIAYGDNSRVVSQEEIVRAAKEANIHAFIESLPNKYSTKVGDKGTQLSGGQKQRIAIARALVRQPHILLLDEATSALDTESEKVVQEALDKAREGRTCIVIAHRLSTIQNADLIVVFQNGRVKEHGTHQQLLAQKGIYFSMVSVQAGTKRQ
T3 sequence (P10635 whole entry): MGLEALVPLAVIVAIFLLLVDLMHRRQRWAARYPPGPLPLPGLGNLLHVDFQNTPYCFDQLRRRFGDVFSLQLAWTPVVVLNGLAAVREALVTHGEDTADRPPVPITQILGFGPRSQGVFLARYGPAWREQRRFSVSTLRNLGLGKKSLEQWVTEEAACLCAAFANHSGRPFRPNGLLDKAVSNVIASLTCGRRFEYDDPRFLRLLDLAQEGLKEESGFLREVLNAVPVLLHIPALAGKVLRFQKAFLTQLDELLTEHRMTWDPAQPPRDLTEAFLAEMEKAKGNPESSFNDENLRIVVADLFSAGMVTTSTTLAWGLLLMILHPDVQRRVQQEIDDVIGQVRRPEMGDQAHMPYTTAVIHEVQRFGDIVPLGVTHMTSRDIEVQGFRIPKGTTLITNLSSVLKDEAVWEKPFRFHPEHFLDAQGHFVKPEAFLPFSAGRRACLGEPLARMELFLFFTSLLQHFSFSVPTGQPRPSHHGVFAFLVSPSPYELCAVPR
Chain of CYP2C9 (P11712 whole entry): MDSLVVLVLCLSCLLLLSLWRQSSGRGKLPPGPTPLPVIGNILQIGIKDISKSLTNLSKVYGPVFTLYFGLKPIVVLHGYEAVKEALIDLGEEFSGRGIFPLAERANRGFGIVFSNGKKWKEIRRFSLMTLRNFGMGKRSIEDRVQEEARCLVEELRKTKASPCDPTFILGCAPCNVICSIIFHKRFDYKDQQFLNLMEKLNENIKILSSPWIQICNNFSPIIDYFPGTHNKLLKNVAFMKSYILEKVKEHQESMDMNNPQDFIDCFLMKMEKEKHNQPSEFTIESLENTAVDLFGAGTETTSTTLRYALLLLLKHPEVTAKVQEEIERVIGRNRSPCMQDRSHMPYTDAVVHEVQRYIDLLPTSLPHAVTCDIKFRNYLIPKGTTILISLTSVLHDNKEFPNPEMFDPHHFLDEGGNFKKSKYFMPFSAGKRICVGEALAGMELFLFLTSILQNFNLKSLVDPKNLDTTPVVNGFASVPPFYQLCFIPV
T1 sequence (Q96FL8 whole entry): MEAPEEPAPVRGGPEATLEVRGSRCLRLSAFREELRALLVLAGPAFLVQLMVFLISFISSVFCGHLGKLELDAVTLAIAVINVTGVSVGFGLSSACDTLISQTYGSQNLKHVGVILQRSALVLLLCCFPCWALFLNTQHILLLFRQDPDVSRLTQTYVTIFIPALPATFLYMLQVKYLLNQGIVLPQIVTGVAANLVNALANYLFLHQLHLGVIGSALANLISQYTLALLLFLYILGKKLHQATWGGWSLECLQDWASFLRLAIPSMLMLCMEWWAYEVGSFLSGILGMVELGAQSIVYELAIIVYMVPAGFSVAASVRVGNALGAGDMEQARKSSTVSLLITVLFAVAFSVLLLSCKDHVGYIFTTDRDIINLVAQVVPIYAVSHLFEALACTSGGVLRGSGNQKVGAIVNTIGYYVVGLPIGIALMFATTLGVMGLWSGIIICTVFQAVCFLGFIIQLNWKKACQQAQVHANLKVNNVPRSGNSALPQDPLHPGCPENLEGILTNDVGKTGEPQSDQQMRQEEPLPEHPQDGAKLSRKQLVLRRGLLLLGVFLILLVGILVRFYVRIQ
T4 sequence (Q8TCC7 whole entry): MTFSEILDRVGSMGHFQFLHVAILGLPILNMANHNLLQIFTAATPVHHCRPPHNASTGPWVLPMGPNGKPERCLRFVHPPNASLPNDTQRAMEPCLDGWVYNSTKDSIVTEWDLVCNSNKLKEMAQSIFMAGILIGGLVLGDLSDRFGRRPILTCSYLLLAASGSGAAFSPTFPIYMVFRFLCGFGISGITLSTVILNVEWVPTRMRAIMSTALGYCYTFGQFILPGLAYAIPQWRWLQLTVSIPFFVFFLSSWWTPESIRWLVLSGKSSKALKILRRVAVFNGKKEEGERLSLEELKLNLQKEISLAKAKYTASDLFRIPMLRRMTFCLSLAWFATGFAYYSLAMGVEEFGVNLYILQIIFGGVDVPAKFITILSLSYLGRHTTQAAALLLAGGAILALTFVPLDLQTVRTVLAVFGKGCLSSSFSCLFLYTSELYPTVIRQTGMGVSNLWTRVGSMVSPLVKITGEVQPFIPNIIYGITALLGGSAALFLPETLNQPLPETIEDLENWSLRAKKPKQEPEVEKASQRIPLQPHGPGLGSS
T5 sequence (Q86VL8 1-566 isoform Q86VL8-3): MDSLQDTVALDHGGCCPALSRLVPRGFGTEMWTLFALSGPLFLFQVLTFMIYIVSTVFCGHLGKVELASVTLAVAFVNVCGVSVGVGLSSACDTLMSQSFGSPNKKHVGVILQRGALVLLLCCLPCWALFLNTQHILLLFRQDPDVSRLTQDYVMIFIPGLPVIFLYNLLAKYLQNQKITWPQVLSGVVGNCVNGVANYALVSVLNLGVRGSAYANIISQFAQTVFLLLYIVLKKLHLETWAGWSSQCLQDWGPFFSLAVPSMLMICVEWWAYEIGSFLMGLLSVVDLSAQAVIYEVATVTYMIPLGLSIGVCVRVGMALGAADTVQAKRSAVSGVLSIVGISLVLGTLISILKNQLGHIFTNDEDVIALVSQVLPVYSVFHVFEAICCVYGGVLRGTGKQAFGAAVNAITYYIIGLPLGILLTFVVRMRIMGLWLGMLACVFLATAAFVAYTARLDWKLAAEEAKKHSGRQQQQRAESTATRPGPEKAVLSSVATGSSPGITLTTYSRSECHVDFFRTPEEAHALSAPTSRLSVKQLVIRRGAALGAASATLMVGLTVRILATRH
Chain of CYP1A2 (P05177 whole entry): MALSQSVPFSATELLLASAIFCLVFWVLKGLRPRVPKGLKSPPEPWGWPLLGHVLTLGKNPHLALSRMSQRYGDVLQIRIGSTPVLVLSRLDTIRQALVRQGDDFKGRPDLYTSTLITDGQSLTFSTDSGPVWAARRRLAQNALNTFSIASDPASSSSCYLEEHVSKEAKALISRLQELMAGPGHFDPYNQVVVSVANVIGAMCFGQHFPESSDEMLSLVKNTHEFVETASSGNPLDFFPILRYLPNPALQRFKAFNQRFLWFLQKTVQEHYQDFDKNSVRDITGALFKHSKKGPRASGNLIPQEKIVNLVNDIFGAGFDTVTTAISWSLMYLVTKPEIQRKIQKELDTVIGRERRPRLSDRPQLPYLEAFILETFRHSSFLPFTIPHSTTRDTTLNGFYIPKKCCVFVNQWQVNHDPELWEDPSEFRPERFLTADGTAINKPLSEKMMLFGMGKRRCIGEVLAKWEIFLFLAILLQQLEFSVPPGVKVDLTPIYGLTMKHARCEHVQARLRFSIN

SMILES: CN/C(=N/CCSCc1nc[nH]c1C)NC#N [Cimetidine]
- inhibition at 100 µM (MATE1 [1]): 99.2%
- Inhibition Potential Classification (MATE1 [2]): Positive (Percent inhibition≥50%: Positive)

SMILES: O=C(O)Cc1ccccc1Nc1c(Cl)cccc1Cl [Diclofenac]
- recovery at 60 min, 2 μM (in vitro [3]; both, human): 91.2 ± 4.43%
- Analyte Peak/IS Peak Ares (Mean), T60-blood (in vitro [3]; both, human): 0.311
- Analyte Peak/IS Peak Ares (Mean), T60-plasma (in vitro [3]; both, human): 0.473
- recovery at 60 min, 2 μM (in vitro [3]; male, CD-1, mouse): 100 ± 6.79%
- Analyte Peak/IS Peak Ares (Mean), T60-blood (in vitro [3]; male, CD-1, mouse): 0.365
- Analyte Peak/IS Peak Ares (Mean), T60-plasma (in vitro [3]; male, CD-1, mouse): 0.501
- recovery at 60 min, 2 μM (in vitro [3]; male, Sprague-Dawley, rat): 100 ± 3.45%
- Analyte Peak/IS Peak Ares (Mean), T0 (in vitro [3]; male, Sprague-Dawley, rat): 0.330
- Analyte Peak/IS Peak Ares (Mean), T60-blood (in vitro [3]; male, Sprague-Dawley, rat): 0.331
- Analyte Peak/IS Peak Ares (Mean), T60-plasma (in vitro [3]; male, Sprague-Dawley, rat): 0.480
- recovery at 60 min, 2 μM (in vitro [3]; male, beagle, dog): 104 ± 1.36%
- Analyte Peak/IS Peak Ares (Mean), T0 (in vitro [3]; male, beagle, dog): 0.301
- Analyte Peak/IS Peak Ares (Mean), T60-blood (in vitro [3]; male, beagle, dog): 0.313
- Analyte Peak/IS Peak Ares (Mean), T60-plasma (in vitro [3]; male, beagle, dog): 0.484
- recovery at 60 min, 2 μM (in vitro [3]; male, cynomolgus monkey): 101 ± 8.23%
- Analyte Peak/IS Peak Ares (Mean), T0 (in vitro [3]; male, cynomolgus monkey): 0.314
- Analyte Peak/IS Peak Ares (Mean), T60-blood (in vitro [3]; male, cynomolgus monkey): 0.318
- Analyte Peak/IS Peak Ares (Mean), T60-plasma (in vitro [3]; male, cynomolgus monkey): 0.513
- Formation Rate (CYP2C9): 650 pmol metabolite/min/mg Supersome protein
- Measured Metabolite (CYP2C9): 0.676 µM

SMILES: C[C@H]1O[C@@H](O[C@H]2[C@@H](O)C[C@H](O[C@H]3[C@@H](O)C[C@H](O[C@H]4CC[C@@]5(C)[C@H](CC[C@@H]6[C@@H]5C[C@@H](O)[C@]5(C)[C@@H](C7=CC(=O)OC7)CC[C@]65O)C4)O[C@@H]3C)O[C@@H]2C)C[C@H](O)[C@@H]1O [Digoxin, digoxin]
- Recovery (%) (P-GP [4]): 79.9%
- Papp A→B at 120 min (P-GP [5]): 0.344 ×10⁻⁶ cm/s
- Papp B→A at 120 min (P-GP [5]): 10.5 ×10⁻⁶ cm/s
- recovery at 120 min (P-GP [5]): 73.4%
- Papp B→A at 120 min (P-GP [6]): 10.4 ×10⁻⁶ cm/s
- recovery at 120 min (P-GP [6]): 77.6%
- recovery at 120 min, 10 µM (P-GP [7]; Caco-2, pH 7.4, % Recovery): 95.4%
- Papp B→A at 120 min, 10 μM (P-GP [7]; Caco-2, pH 7.4, Papp AVG): 10.9 ×10⁻⁶ cm/s
- Papp A→B at 120 min, 10 μM (P-GP [7]; Caco-2, pH 7.4, Papp R1): 0.344 ×10⁻⁶ cm/s
- Papp A→B at 120 min, 10 μM (P-GP [7]; Caco-2, pH 7.4, Papp R2): 0.645 ×10⁻⁶ cm/s
- Papp B→A at 120 min, 10 μM (P-GP [7]; Caco-2, pH 7.4, Papp R2): 10.5 ×10⁻⁶ cm/s
- recovery at 120 min, 10 µM (P-GP [7]; Caco-2, pH 7.4, Recovery (%)): 73.4%
- Papp A→B (in vitro [8]): 0.511 ×10⁻⁶ cm/s
- Papp A→B at 120 min (P-gp [9]): 0.403 ×10⁻⁶ cm/s
- Papp B→A at 120 min (P-gp [9]): 8.93 ×10⁻⁶ cm/s
- Papp B→A (P-gp (MDR1)): 11 ×10⁻⁶ cm/s
- Papp A→B at 120 min (P-gp [10]): 0.0792 ×10⁻⁶ cm/s
- P-gp Substrate Classification (P-GP [11]; Digoxin): Positive
- Recovery (%) (P-GP [11]; Digoxin + 1 μM Valspodar, A-to-B): 72.2%
- Recovery (%) (P-GP [11]; Digoxin + 1 μM Valspodar, B-to-A): 95.3%
- Papp AVG (P-GP [11]; Digoxin, A-to-B): 0.494 10^−6 cm/s
- Papp AVG (P-GP [11]; Digoxin, B-to-A): 10.9 10^−6 cm/s
- Papp R1 (P-GP [11]; Digoxin, B-to-A): 11.4 10^−6 cm/s
- Recovery (%) (P-GP [11]; Digoxin, B-to-A): 79.9%
- P-gp Substrate Classification (P-GP [12]; Digoxin): Positive
- Recovery (%) (P-GP [12]; Digoxin + 1 μM Valspodar): 85.9%
- Papp AVG (P-GP [12]; Digoxin, A-to-B): 0.0321 10^−6 cm/s
- Papp R1 (P-GP [12]; Digoxin, A-to-B): 0.0436 10^−6 cm/s
- Recovery (%) (P-GP [12]; Digoxin): 74.9%

SMILES: Fc1ccc([C@@H]2CCNC[C@H]2COc2ccc3c(c2)OCO3)cc1 [Paroxetine]
- % of Control Enzyme Activity (CYP2D6 [13]): 79.1%
- activity at 30 min, 0.123 µM (CYP2D6 [14]): 95.8%

SMILES: CCOc1ccc(NC(C)=O)cc1 [Phenacetin]
- Formation Rate (CYP1A2): 1819 pmol metabolite/min/mg Supersome protein
- Measured Metabolite (CYP1A2): 3.71 µM

SMILES: CCCN(CCC)S(=O)(=O)c1ccc(C(=O)O)cc1 [Probenecid]
- inhibition at 100 µM (OAT3 [15]): 72%
- Inhibition Potential Classification (OAT3 [16]): Positive (Percent inhibition≥50%: Positive)

SMILES: CC(C)NCC(O)COc1cccc2ccccc12 (stereo not drawn) [Propranolol]
- Papp [17]: 20.1 ×10⁻⁶ cm/s
- Papp at 120 min (in vitro [18]): 20.3 ×10⁻⁶ cm/s

SMILES: CCc1nc(N)nc(N)c1-c1ccc(Cl)cc1 [Pyrimethamine]
- inhibition at 1 µM (MATE2K [19]): 93.3%
- Inhibition Potential Classification (MATE2K [20]): Positive (Percent inhibition≥50%: Positive)

SMILES: CC[C@@]1(c2ccccc2)NC(=O)N(C)C1=O [S-mephenytoin]
- Formation Rate [21]: 0 pmol metabolite/min/mg Supersome protein
- Measured Metabolite [21]: 0 µM
